According to patent US20140371262A1, “PREVENTIVE AND/OR THERAPEUTIC AGENT FOR THROMBOEMBOLISM IN THROMBOEMBOLISM PATIENT WITH SEVERE RENAL IMPAIRMENT” (Daiichi Sankyo Company, Limited, priority 2011, published 2014):

Experiments:
[1] = test system: NVAF patients; experiment: Late phase-II trial targeting NVAF patient in Japan (thromboembolic and bleeding events, 12 weeks); type: in vivo, human; settings: for Bleeding events, subjects with event/subjects / Incidence of bleeding events (major, clinically relevant non-major and minor bleeding in total): all subjects
[2] = test system: NVAF patient with severe renal impairment or with normal renal functions or mild renal impairment; experiment: Phase-III trial targeting NVAF patient with severe renal impairment; settings: for Any bleeding events (adjudicated), incidence / Any bleeding events (adjudicated), number of subjects with events / Clinically relevant non-major bleeding events, incidence / Clinically relevant non-major bleeding events, number of subjects with events / Major bleeding events, incidence / Major bleeding events, number of subjects with events: 12 weeks
[3] = test system: patients with moderate to-high-risk atrial fibrillation; experiment: ENGAGE-AF TIMI-48 phase 3 study of edoxaban versus warfarin in atrial fibrillation
[4] = 60 mg×1/day, 12 weeks, CLCR < 30 mL/min
[5] = each edoxaban group (30, 45, 60 mg) vs warfarin group
[6] = Normal/MiRI (CLCR 50 mL/min or higher), high-dose 60 mg once a day
[7] = Normal/MiRI (CLCR 50 mL/min or higher), low-dose 30 mg once a day
[8] = SRI (CLCR 15 to <30 mL/min), edoxaban 15 mg once a day
[9] = any of the treatment groups (SRI 15 mg, Normal/MiRI 30 mg, 60 mg)
[10] = high-dose edoxaban (60 mg once daily, halved per criteria)
[11] = low-dose edoxaban (30 mg once daily, halved per criteria)
[12] = subgroup whose CLCR had become <30 mL/min during the trial, edoxaban 15 mg (N = 349), warfarin dose adjusted (N = 367)

Compound: CN1CCc2nc(C(=O)N[C@@H]3C[C@@H](C(=O)N(C)C)CC[C@@H]3NC(=O)C(=O)Nc3ccc(Cl)cn3)sc2C1 [edoxaban, N^1-(5-chloropyridin-2-yl)-N^2-((1S,2R,4S)-4-[(dimethylamino)carbonyl]-2-{[(5-methyl-4,5,6,7-tetrahydrothiazolo[5,4-c]pyridin-2-yl)carbonyl]amino}cyclohexyl)ethanediamide]
- Incidence of bleeding event (major, clinically relevant non-major and minor bleeding in total) [1, 4]: 100.0%
- Incidence of major bleeding or clinically relevant non-major bleeding [1, 4]: 0%
- Major bleeding or clinically relevant non-major bleeding, subjects with event/subjects [1, 4]: (0/1)
- Incidence of bleeding events compared with the warfarin group [1, 5]: No statistically significant difference
- Incidence of major bleeding, or of major bleeding or clinically relevant non-major bleeding, compared with the warfarin group [1, 5]: not statistically significantly different
- Bleeding events, subjects with event/subjects ([1]; edoxaban 30 mg group, 12 weeks): 24/130
- Incidence of bleeding events (major, clinically relevant non-major and minor bleeding in total) ([1]; edoxaban 30 mg group, 12 weeks): 18.5%
- Major bleeding, incidence ([1]; edoxaban 45 mg group, 12 weeks): 2.2%
- Major bleeding, number of subjects ([1]; edoxaban 45 mg group, 12 weeks): 3 subjects
- Bleeding events, subjects with event/subjects ([1]; edoxaban 45 mg group, 12 weeks): 30/134
- Incidence of bleeding events (major, clinically relevant non-major and minor bleeding in total) ([1]; edoxaban 45 mg group, 12 weeks): 22.4%
- Thromboembolic events ([1]; edoxaban 45 mg group, 12 weeks, the only thromboembolic event of the trial): one cerebral infarction
- Major bleeding, incidence ([1]; edoxaban 60 mg group, 12 weeks): 1.5%
- Major bleeding, number of subjects ([1]; edoxaban 60 mg group, 12 weeks): 2 subjects
- Bleeding events, subjects with event/subjects ([1]; edoxaban 60 mg group, 12 weeks): 36/130
- Incidence of bleeding events (major, clinically relevant non-major and minor bleeding in total) ([1]; edoxaban 60 mg group, 12 weeks): 27.7%
- Bleeding compared to the low dose or high dose in patients with Normal/miRI ([2]; 15 mg of edoxaban for 12 weeks in patients with SRI): did not result in a marked increase in bleeding
- Any bleeding events (adjudicated), incidence [2, 6]: 23.8%
- Any bleeding events (adjudicated), number of subjects with events [2, 6]: 5
- Clinically relevant non-major bleeding events, incidence [2, 6]: 4.8%
- Clinically relevant non-major bleeding events, number of subjects with events [2, 6]: 1
- Major bleeding events, incidence [2, 6]: 0.0%
- Major bleeding events, number of subjects with events [2, 6]: 0
- Any bleeding events (adjudicated), incidence [2, 7]: 22.7%
- Any bleeding events (adjudicated), number of subjects with events [2, 7]: 5
- Clinically relevant non-major bleeding events, incidence [2, 7]: 0%
- Clinically relevant non-major bleeding events, number of subjects with events [2, 7]: 0
- Major bleeding events, incidence [2, 7]: 0.0%
- Major bleeding events, number of subjects with events [2, 7]: 0
- Difference in the incidence of any adjudicated bleeding events ([2]; SRI 15-mg edoxaban group vs Normal/MiRI low-dose (30-mg) or high-dose (60-mg) group): No notable difference
- Any bleeding events (adjudicated), incidence [2, 8]: 20.0%
- Any bleeding events (adjudicated), number of subjects with events [2, 8]: 10
- Clinically relevant non-major bleeding events, incidence [2, 8]: 0%
- Clinically relevant non-major bleeding events, number of subjects with events [2, 8]: 0
- Major bleeding events, incidence [2, 8]: 0.0%
- Major bleeding events, number of subjects with events [2, 8]: 0
- Relation of the serious adverse events to the study drug ([2]; all serious adverse events were reported in the SRI 15-mg group): considered unrelated to the study drug
- Deaths ([2]; any of the treatment groups): No deaths were reported
- Adjudicated major bleeding events [2, 9]: No adjudicated major bleeding events occurred
- Thromboembolic events (cerebral infarction and systemic embolism) [2, 9]: No cerebral infarction or systemic embolism occurred
- Efficacy, safety and composite primary endpoint comprising ACM compared with warfarin ([3]; 15 mg dose regimen of edoxaban, subgroup CLCR <30 mL/min): noninferior to warfarin
- Prevention of stroke or systemic embolism compared with warfarin ([3]; both once-daily regimens of edoxaban): noninferior to warfarin
- Hazard ratio vs warfarin, death from cardiovascular causes ([3]; high-dose edoxaban): 0.86
- Hazard ratio vs warfarin, key secondary end point ([3]; high-dose edoxaban): 0.87
- Hazard ratio vs warfarin, major bleeding ([3]; high-dose edoxaban): 0.80
- Hazard ratio vs warfarin, primary end point during treatment ([3]; high-dose edoxaban): 0.79
- Hazard ratio vs warfarin, primary end point, intention-to-treat analysis ([3]; high-dose edoxaban): 0.87
- Annualized rate of death from cardiovascular causes [3, 10]: 2.74%
- Annualized rate of major bleeding [3, 10]: 2.75%
- Annualized rate of the primary end point (stroke or systemic embolism) during treatment [3, 10]: 1.18%
- Rate of the key secondary end point (composite of stroke, systemic embolism, or death from cardiovascular causes) [3, 10]: 3.85%
- Hazard ratio vs warfarin, death from cardiovascular causes ([3]; low-dose edoxaban): 0.85
- Hazard ratio vs warfarin, key secondary end point ([3]; low-dose edoxaban): 0.95
- Hazard ratio vs warfarin, major bleeding ([3]; low-dose edoxaban): 0.47
- Hazard ratio vs warfarin, primary end point during treatment ([3]; low-dose edoxaban): 1.07
- Hazard ratio vs warfarin, primary end point, intention-to-treat analysis ([3]; low-dose edoxaban): 1.13
- Annualized rate of death from cardiovascular causes [3, 11]: 2.71%
- Annualized rate of major bleeding [3, 11]: 1.61%
- Annualized rate of the primary end point (stroke or systemic embolism) during treatment [3, 11]: 1.61%
- Rate of the key secondary end point (composite of stroke, systemic embolism, or death from cardiovascular causes) [3, 11]: 4.23%
- ACM (all cause mortality): # of events [3, 12]: 12
- ACM (all cause mortality): Event Rate [3, 12]: 1.95 %/yr
- Disabling Stroke: # of events [3, 12]: 3
- Disabling Stroke: Event Rate [3, 12]: 0.49 %/yr
- Fatal Bleed: # of events [3, 12]: 2
- Fatal Bleed: Event Rate [3, 12]: 0.33 %/yr
- Fatal SEE: # of events [3, 12]: 0
- Fatal SEE: Event Rate [3, 12]: 0.00 %/yr
- Fatal Stroke: # of events [3, 12]: 2
- Fatal Stroke: Event Rate [3, 12]: 0.33 %/yr
- First Disabling or Fatal Stroke, Fatal SEE, LT or Fatal Bleed, or ACM: # of events [3, 12]: 19
- First Disabling or Fatal Stroke, Fatal SEE, LT or Fatal Bleed, or ACM: Event Rate [3, 12]: 3.10 %/yr
- First Stroke, SEE or TIA: # of events [3, 12]: 15
- First Stroke, SEE or TIA: Event Rate [3, 12]: 2.48 %/yr
- First Stroke, SEE, Major Bleed, or ACM: # of events [3, 12]: 39
- First Stroke, SEE, Major Bleed, or ACM: Event Rate [3, 12]: 6.46 %/yr
- LT Bleed (life threatening): # of events [3, 12]: 2
- LT Bleed (life threatening): Event Rate [3, 12]: 0.33 %/yr
